Data reported in paper PMC9009886, “In vitro and in vivo Anti-leishmanial Potential of [Ag (PTA) 4 ]BF 4 and [Ag(HBPz 3 )(PPh 3 )] Silver Complexes” (Revista da Sociedade Brasileira de Medicina Tropical, 2022).
Converted amounts (≈) assume the structure as drawn. Like-named read-outs stand apart in the source and are kept apart here.

Assays:
[1] = system: amastigote of L. (L.) amazonensis; set-up: method as in doi:10.1016/j.poly.2014.05.004; conditions: cited from earlier work
[2] = system: murine peritoneal macrophages; assay: Cytotoxicity (MTT) in murine peritoneal macrophages; assay type: cell-based, Balb/c (Mus musculus) mice; conditions: for CC50: peritoneal macrophages, MTT
Method: Peritoneal macrophages were extracted from Balb/c (Mus musculus) mice, from colonies of the Central Vivarium at the INPA, with the approval of the Ethics Committee on the Use of Animals (CEUA - INPA 023/2020; Appendix A). The animals were anesthetized with ketamine hydrochloride (Dopalen®), and a ventral incision was made. The RPMI medium was introduced; and the abdominal massage was performed for macrophage activation, followed by aspiration, and centrifuged at 1,500 g for 10 min. Cell concentration was adjusted to 10[4] macrophages/mL[6].
(§1) The assay was performed in 96-well plates (KASVI®). The RPMI medium was added to the cells at a concentration of 10[4] cells/mL/well. The metal complexes were added at concentrations of […] in triplicate as […], and Glucantime® was used at the same concentration as the metal complexes. The negative controls used DMSO at 4 concentrations (2%, 1%, 0.50%, and 0.25%), and the RMPI medium containing the cells remained exposed to the substance for up to 24, 48, and 72 h.
(§2) After each period, a solution of [3-(4,5-dimethylthiazol-2yl) -2,5-diphenyltetrazolium] bromide (MTT) was added to the wells at (concentration of 0.5 mg/mL). The plates were incubated for 4 h at 37 °C and then subjected to spectrophotometry (Biotek®) at an absorbance of 590 nm. Three independent trials were performed with peritoneal macrophages and human monocytes.

[3] = system: amastigote forms of L. (L.) amazonensis internalized in murine peritoneal macrophages; assay: Assay with amastigote forms of L. (L.) amazonensis in peritoneal macrophages; assay type: cell-based, Leishmania (Leishmania) amazonensis
Method: (§3) The assay against amastigote forms was performed using murine peritoneal macrophages and human monocytes, obtained as described for the cytotoxicity assay. The cells were incubated for 48 h in a 24 well-plate containing glass coverslips with the RPMI medium, and cell volume adjusted to 10[5] macrophages/monocyte/mL.
(§4) The adhered cells were infected with promastigote forms of Leishmania spp. and left for 2 h. The test substances were then added at the concentrations used in previous trials and exposed for 24, 48, and 72 h. Coverslips were stained using a Panoptic kit (Laborclin® - Laborclin Products for Laboratories Ltd, Pinhais, Brazil) and quantified using optical microscopy at 400 × magnification. A total of 100 cells were quantified to evaluate the number of infected and uninfected macrophages and internalized amastigotes. Three independent assays were performed on peritoneal macrophages and human monocytes.
(§5) The SI is the relationship between the cytotoxic activity of the tested compound and its anti-leishmanial activity. In our study, the SI was calculated from the ratio of cytotoxicity for macrophages/monocytes with a cytotoxic concentration at 50% (CC50) and action against amastigote forms in each of these cell types with an inhibitory concentration at 50% (IC50), using the equation: SI = CC50IC50-AMA^3
(§6) Statistical analysis was performed using linear regression to calculate IC50 using GraphPad Prism® (GraphPad Software Inc. version 6.0, for Windows). Results are expressed as mean ± standard deviation.

[4] = system: amastigote forms of L. (V.) guyanensis in human monocytes; assay: Assay with amastigote forms of L. (V.) guyanensis in human monocytes; assay type: cell-based, Leishmania (Viannia) guyanensis
Method: as §3, §4, §6

[5] = system: lesions caused by L. (V.) guyanensis; assay: Topical treatment of lesions in hamsters infected with L. (V.) guyanensis; assay type: in vivo, Mesocricetus auratus
Method: (§7) To prepare the Carbopol®-based gel, Nipagin® was mixed with distilled water until its total solubilization, and then Carpobol® was added. Then, the metal complex was added and incorporated separately in each gel, and triethonolamine was added gradually until a thick gel was obtained. Finally, the metal complexes were mixed at a concentration of 3 mg/L, a value defined for comparative purposes with the positive control of the study (Glucantime®) administered at the same concentration via the intramuscular (IM) route.
(§8) For the assays, 72 adult male aged 60-days golden hamsters (Mesocricetus auratus) that were free of pathogens and had been previously obtained from the Central Vivarium at the INPA (CEUA 060/2018) were used [Appendix C]. The animals were housed in stainless steel cages in air-conditioned rooms, with controlled light, temperature (22-25 °C), humidity (50-60%), and food and water ad libitum.
Animals were separated into six groups. Five groups were infected with 100 µL of a solution containing 10[6] promastigote/mL of Leishmania spp. The first experiment involved 36 animals infected with L. (L.) amazonensis, and the second experiment involved 36 animals infected with L. (V.) guyanensis. Animals were divided into the following groups: […]
To evaluate the course of infection, the total volume of the lesion (length, width, and height) was measured using a caliper (Zaas® Precision). […]
For parasitological studies, a sample of the tissue from the lesion region lesion in each animal was sectioned, and the fragment was printed on a glass slide and stained using the Panoptic kit (Laborclin®). The slides were evaluated using optical microscopy, 30 fields were counted, and the analysis and quantification of infected and uninfected cells and the quantity of internalized amastigote forms were performed. […] After this period, an aliquot containing the fragments was evaluated using optical microscopy for parasitological analysis. […]

[6] = system: amastigote forms of L. (L.) amazonensis in human monocytes; assay: Assay with amastigote forms of L. (L.) amazonensis in human monocytes; assay type: cell-based, Leishmania (Leishmania) amazonensis
Method: as §3, §4, §6

[7] = system: human monocytes; assay: Cytotoxicity (MTT) in human monocytes; assay type: cell-based; conditions: for CC50: MTT
Method: Human monocytes were obtained after approval from the Research Ethics Committee (CEP-UFAM: 29406319.2.0000.5020) (Appendix B). Blood samples were collected from all patients. Phosphate-buffered saline (PBS) 1 x was added, and the blood/PBS was added gently on Ficoll-Histopaque (Sigma-Aldrich®) [density of 1077] and centrifuged for 30 min/200 g[7]. Peripheral blood mononuclear cells were collected, added PBS 1 x, and centrifuged for 3 min at 400 × g. The cell concentration was adjusted to 10[4] monocytes/mL[7].
as §1, §2

[8] = system: promastigote forms of Leishmania (Viannia) guyanensis (M4147); assay: Assay with promastigote forms, L. (V.) guyanensis; assay type: cell-based
Method: (§9) We used the species L. (Leishmania) amazonensis [L. (L.) amazonensis] (MHOM/BR/2009/IM5584) and L. (Viannia) guyanensis [L. (V.) guyanensis] (MHOM/BR/1975/M4147), which had been cultivated in the biphasic medium Novy - MacNeal - Nicolle (NNN) and amplified in the RPMI liquid medium (Himedia®). The culture was centrifuged for 15 min at 4,400 g. Parasites were adjusted to a concentration of 10[4] parasites/mL.
(§10) The parasites were used at a concentration of 10[4] parasites/mL. The assay was performed in 96-well plates (KASVI®), and then the same procedure and concentrations of the substances were used in the cytotoxicity assay, with negative control and culture medium containing parasites. The activity of the complexes was evaluated at 24, 48, and 72 h intervals using a Neubauer chamber. In addition, cellular viability was evaluated using the assay. Three independent tests were conducted.
as §6

[9] = system: lesions caused by L. (L.) amazonensis; assay: Topical treatment of lesions in hamsters infected with L. (L.) amazonensis; assay type: in vivo, Mesocricetus auratus; conditions: for Infected cells / internalized amastigotes in lesion fragments: after 30 days of treatment; for Lesion volume (in words): gel topically 0.3 mg/day once a day, Glucantime IM 3 mg (Sb5)/kg/day, 30 days, Ag2 effect after the 14th day
Method: as §7, §8
Animals were separated into six groups. Five groups were infected with 100 µL of a solution containing 10[6] promastigote/mL of Leishmania spp. The first experiment involved 36 animals infected with L. (L.) amazonensis, and the second experiment involved 36 animals infected with L. (V.) guyanensis. Animals were divided into the following groups:
• Group I: Uninfected control • Group II: Untreated, infected control • Group III: Infected and treated with Glucantime® (IM) • Group IV: Infected and treated with Ag1 (lesions treated topically once a day) • Group V: Infected and treated with Ag2 (lesions treated topically once a day) • Group VI: Infected and treated with gel without the addition of complexes (lesions treated topically once a day)
To evaluate the course of infection, the total volume of the lesion (length, width, and height) was measured using a caliper (Zaas® Precision). Animals were weighed once per week. After 30 days of treatment, the animals were euthanized using ketamine hydrochloride (Dopalen®) combined with xylazine hydrochloride (Anasedan®) following the Animal Use Ethics Commission (CEUA) protocols (060/2018).
For parasitological studies, a sample of the tissue from the lesion region lesion in each animal was sectioned, and the fragment was printed on a glass slide and stained using the Panoptic kit (Laborclin®). The slides were evaluated using optical microscopy, 30 fields were counted, and the analysis and quantification of infected and uninfected cells and the quantity of internalized amastigote forms were performed. Fragments of each animal’s skin lesions and liver were also sectioned and cultured in an NNN medium for 7 days. After this period, an aliquot containing the fragments was evaluated using optical microscopy for parasitological analysis.
For the in vivo results, we used two-way analysis of variance to evaluate the statistical significance between the groups, followed by the Tukey test to compare the means of the groups at a 95% confidence interval.

[10] = system: amastigote forms of L. (V.) guyanensis in murine peritoneal macrophages; assay: Assay with amastigote forms of L. (V.) guyanensis in peritoneal macrophages; assay type: cell-based, Leishmania (Viannia) guyanensis
Method: as §3, §4, §5, §6

[11] = system: promastigote forms of Leishmania (Leishmania) amazonensis (IM5584); assay: Assay with promastigote forms, L. (L.) amazonensis; assay type: cell-based
Method: as §9, §10, §6

[12] = system: mammalian TrxR; set-up: method as in PMID 33238608; conditions: purified enzyme and cell extracts; cited from earlier work
[13] = system: large panel of cancer cell lines; set-up: method as in PMID 33238608; conditions: cited from earlier work
[14] = L. (L.) amazonensis (IM5584), 24 h, read-out: IC50 values, promastigote forms
[15] = L. (L.) amazonensis (IM5584), 48 h, read-out: IC50 values, promastigote forms
[16] = L. (L.) amazonensis (IM5584), 72 h, read-out: IC50 values, promastigote forms

Row | Compound | IC50 ([3]; 24 h) [µM] | IC50 ([3]; 48 h) [µM] | IC50 ([3]; 72 h) [µM] | IC50 ([4]; 24 h) [µM] | IC50 ([4]; 48 h) [µM] | IC50 ([4]; 72 h) [µM] | IC50 ([6]; 24 h) [µM] | IC50 ([6]; 48 h) [µM] | IC50 ([6]; 72 h) [µM] | IC50 ([8]; 24 h) [µM] | IC50 ([8]; 48 h) [µM] | IC50 ([8]; 72 h) [µM] | Infected cells / internalized amastigotes in lesion fragments [9] | Lesion volume (in words) [9] | IC50 ([10]; 24 h) [µM] | IC50 ([10]; 48 h) [µM] | IC50 ([10]; 72 h) [µM] | IC50 [11, 14] [µM] | IC50 [11, 15] [µM] | IC50 [11, 16] [µM] | other results
1 | C[C@@H]1[C@H](O)[C@@H](C)/C=C/C=C/C=C/C=C/C=C/C=C/C=C/[C@H](O[C@@H]2O[C@H](C)[C@@H](O)[C@H](N)[C@@H]2O)C[C@@H]2O[C@](O)(C[C@@H](O)C[C@@H](O)[C@H](O)CC[C@@H](O)C[C@@H](O)CC(=O)O[C@H]1C)C[C@H](O)[C@H]2C(=O)O [amphotericin B®, amphotericin B] | – | – | – | – | – | – | – | – | – | – | – | – | – | – | – | – | – | – | – | – | IC50 amastigote [1]: 1.20 µg/mL (≈ 1.3 µM)
2 | C1N2CN3CN1CP(C2)C3.C1N2CN3CN1CP(C2)C3.C1N2CN3CN1CP(C2)C3.C1N2CN3CN1CP(C2)C3.F[B-](F)(F)F.[Ag+] [Ag1, [Ag (PTA)4]BF4] | 6.09 ± 0.47 | 14.9 ± 0.41 | 23.8 ± 1.51 | 109.2 ± 0.63 | 186.6 ± 0.57 | 270.3 ± 0.25 | 23.3 ± 1.04 | 69.04 ± 0.34 | 150.7 ± 0.91 | 75.14 ± 0.53 | 130 ± 2.94 | 228.9 ± 1.26 | greater number of internalized amastigotes | evolution of lesions | 90.51 ± 0.7 | 105.1 ± 0.42 | 116 ± 1.58 | < 10 | 69.2 ± 3.03 | 104 ± 1.47 | Cytotoxicity (in words) [2]: toxic; Number of amastigotes internalized in lesion ([5]; compared to the treated groups): highest number; Number of infected cells in lesion fragments ([5]; statistical difference compared to Glucantime): largest number of infected cells; Cytotoxicity (in words) [7]: toxic; IC50 ([11]; L. (L.) amazonensis, read-out: Activity class according to IC50, promastigotes): < 10 µM
3 | [Ag+].c1ccc(P(c2ccccc2)c2ccccc2)cc1.c1cnn([BH-](n2cccn2)n2cccn2)c1 [Ag2, [Ag(HBPz3)(PPh3)]] | – | – | – | – | – | – | – | – | – | – | – | – | statistically significant difference compared to the group without treatment | reduction in lesion volume | – | – | – | – | – | – | Cytotoxicity (in words) ([2]; murine peritoneal macrophages): did not show cytotoxic activity; Cytotoxicity (in words) ([7]; human monocytes): did not show cytotoxic activity; Mean difference in lesion volume versus Glucantime ([9]; after the 14th day of treatment, no statistical difference): 4.38; TrxR inhibition (in words) [12]: very strong inhibitor; Cytotoxic activity toward cancer cell lines (in words) [13]: remarkable cytotoxic activity
4 | meglumine antimoniate [Glucantime®, reference compound] | 57.1 ± 0.77 | 279.2 ± 1.95 | 318.7 ± 1.48 | 374.7 ± 0.64 | 372.6 ± 1.75 | 427.8 ± 1.32 | 294.6 ± 0.38 | 317.2 ± 1.75 | 391 ± 1.38 | 286.6 ± 1.28 | 376.5 ± 2.74 | 453.7 ± 3.18 | – | reduction in lesion volume | 48.2 ± 0.77 | 70.2 ± 1.62 | 101 ± 1.02 | 292.1 ± 2.4 | 343.1 ± 2.37 | 435.6 ± 3.03 | CC50 ([2]; 24 h): 179 ± 0.23 µM; CC50 ([2]; 48 h): 205.2 ± 1.25 µM; CC50 ([2]; 72 h): 212 ± 2.48 µM; Viable parasites in cultures of lesion fragments (NNN medium) [5]: presence of viable parasites; CC50 ([7]; human monocytes, 24 h): 149 ± 1.52 µM; CC50 ([7]; human monocytes, 48 h): 255 ± 2.74 µM; CC50 ([7]; human monocytes, 72 h): 398.4 ± 1.18 µM; Viable parasites in cultures of lesion fragments (NNN medium) [9]: Viable parasites were observed; Clinical cure ([9]; 30 days of treatment): no clinical cure was obtained
